{
  "source": "patent US20240299572A1",
  "about": "“NITROGEN-CONTAINING COMPOUND, CONJUGATE CONTAINING SAID COMPOUND, AND APPLICATION THEREOF” (SHANGHAI DE NOVO PHARMATECH CO., LTD., priority 2021, published 2024)",
  "data": [
    {"biological_target": "T1, TLR7 (Homo sapiens, UniProt Q9NYK1)", "T1 construct": "host or cells: HEK293 (HEK-BLUE-hTLR7)", "T1 sequence (Q9NYK1 27-1049)": "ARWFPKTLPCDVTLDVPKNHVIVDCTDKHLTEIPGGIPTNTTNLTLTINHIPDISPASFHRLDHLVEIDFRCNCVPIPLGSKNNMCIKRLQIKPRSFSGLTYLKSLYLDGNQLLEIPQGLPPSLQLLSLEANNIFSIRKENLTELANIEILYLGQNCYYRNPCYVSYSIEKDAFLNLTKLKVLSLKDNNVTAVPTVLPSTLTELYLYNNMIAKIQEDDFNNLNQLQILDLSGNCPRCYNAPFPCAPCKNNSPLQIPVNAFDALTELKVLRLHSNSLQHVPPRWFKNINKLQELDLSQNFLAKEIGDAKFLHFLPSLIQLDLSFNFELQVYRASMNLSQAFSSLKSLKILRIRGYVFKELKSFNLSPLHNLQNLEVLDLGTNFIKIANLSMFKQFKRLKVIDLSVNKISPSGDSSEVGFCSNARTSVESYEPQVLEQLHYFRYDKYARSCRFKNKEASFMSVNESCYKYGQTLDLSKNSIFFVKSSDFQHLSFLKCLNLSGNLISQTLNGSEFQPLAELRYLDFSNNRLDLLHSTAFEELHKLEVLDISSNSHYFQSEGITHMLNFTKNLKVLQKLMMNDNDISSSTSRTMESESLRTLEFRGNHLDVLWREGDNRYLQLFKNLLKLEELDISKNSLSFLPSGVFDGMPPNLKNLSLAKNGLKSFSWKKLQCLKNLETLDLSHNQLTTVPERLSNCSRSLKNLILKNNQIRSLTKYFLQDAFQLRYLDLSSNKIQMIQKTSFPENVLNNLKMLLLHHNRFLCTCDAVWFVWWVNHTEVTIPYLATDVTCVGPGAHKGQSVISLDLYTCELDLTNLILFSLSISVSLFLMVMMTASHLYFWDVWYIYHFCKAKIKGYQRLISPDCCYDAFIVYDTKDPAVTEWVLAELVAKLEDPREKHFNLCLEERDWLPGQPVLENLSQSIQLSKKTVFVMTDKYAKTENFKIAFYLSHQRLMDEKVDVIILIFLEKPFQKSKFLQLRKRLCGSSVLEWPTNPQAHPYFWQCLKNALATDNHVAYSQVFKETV", "assay": "Cell activity assay of TLR7 (HEK-BLUE-hTLR7, SEAP reporter, Quanti-Blue)", "assay_type": "cell-based", "conditions": "HEK-BLUE-hTLR7 cells, 24 hours", "method": "(§1) In this experiment, TLR7 and TLR8 bioactivity assays of the compound of formula I were determined using a cellular test. This method was performed in human embryonic kidney cells (HEK293) expressing TLR family members such as TLR4, TLR7, TLR8, or TLR9. TLR agonist activates TLR, causing downstream NF-KB activation, thus activating the secreted embryonic alkaline phosphatase (SEAP) reporter gene. Quanti-Blue (InvivoGen) reagent was used to assay the SEAP activity, thus reflecting the activity of TLR7 and TLR8 agonists.\n(§2) The detailed experimental method is as follows:\nHEK-BLUE-hTLR7 and HEK-BLUE-hTLR8 cell lines were purchased from Invivogen company and cultured in DMEM medium containing 4.5 g/L glucose (Sigma-Aldrich) and 10% fetal bovine serum under a condition of a temperature of 37° C., a humidity of 95%, and 5% CO2. […]\nCell treatment was as follows: The cells were removed from the incubator and centrifuged to remove the culture medium, resuspended in a T-150 flask with 10 mL of pre-warmed PBS. 12 mL of pre-warmed culture medium was added thereto, and the cells were pipetted gently up and down, and counted under a microscope. […]\n20 μL/well of supernatant was pipetted into 180 μL of Quanti-Blue preheated to 37° C., and the mixture was incubated at 37° C. for 1.5 hours, and the absorbance (OD value) at 650 nm was measured with a spectrophotometer. […]", "units": {"EC50": "µM"}, "values": [
      {"molecule": "CCCN(CCO)C(=O)C1=Cc2ccc(C(=O)Nc3cnc4c(c3)CNCC4)cc2N=C(N)C1", "note": "[Compound 13, 2-amino-N^4-(2-hydroxyethyl)-N^4-n-propyl-N^8-(5,6,7,8-tetrahydro-1,6-naphthyridin-3-yl)-3H-benzo[b]azepine-4,8-dicarboxamide]", "EC50": "> 2"}
    ]},
    {"biological_target": "T2, TLR8 (Homo sapiens, UniProt Q9NR97)", "T2 construct": "host or cells: HEK293 (HEK-BLUE-hTLR8)", "T2 sequence (Q9NR97 27-1041)": "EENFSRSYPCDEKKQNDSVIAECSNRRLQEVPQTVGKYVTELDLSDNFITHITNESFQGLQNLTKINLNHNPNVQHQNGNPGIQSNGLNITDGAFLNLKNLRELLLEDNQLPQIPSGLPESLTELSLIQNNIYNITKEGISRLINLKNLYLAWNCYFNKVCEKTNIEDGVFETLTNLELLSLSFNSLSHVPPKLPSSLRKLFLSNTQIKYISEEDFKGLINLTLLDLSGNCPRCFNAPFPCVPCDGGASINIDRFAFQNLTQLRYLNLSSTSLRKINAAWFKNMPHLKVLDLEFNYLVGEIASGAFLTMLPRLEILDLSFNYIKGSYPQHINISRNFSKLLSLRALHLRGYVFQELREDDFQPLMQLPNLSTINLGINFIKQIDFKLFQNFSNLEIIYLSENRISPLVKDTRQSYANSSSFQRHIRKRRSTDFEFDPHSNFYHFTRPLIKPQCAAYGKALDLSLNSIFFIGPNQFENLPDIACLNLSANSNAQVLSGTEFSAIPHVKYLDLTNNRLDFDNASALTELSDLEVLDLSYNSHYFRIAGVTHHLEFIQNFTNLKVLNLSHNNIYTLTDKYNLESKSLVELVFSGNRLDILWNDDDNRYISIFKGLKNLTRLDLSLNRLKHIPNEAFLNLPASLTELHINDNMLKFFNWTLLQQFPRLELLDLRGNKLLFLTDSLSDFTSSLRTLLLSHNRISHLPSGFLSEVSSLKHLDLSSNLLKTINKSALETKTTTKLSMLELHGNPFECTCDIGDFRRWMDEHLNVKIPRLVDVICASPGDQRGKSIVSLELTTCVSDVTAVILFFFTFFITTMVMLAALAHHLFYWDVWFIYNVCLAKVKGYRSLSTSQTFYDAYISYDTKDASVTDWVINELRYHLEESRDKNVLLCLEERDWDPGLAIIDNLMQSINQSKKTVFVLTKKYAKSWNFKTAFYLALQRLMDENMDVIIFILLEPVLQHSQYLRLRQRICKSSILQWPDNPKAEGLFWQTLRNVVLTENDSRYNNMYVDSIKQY", "assay": "Cell activity assay of TLR8 (HEK-BLUE-hTLR8, SEAP reporter, Quanti-Blue)", "assay_type": "cell-based", "conditions": "HEK-BLUE-hTLR8 cells, 24 hours", "method": "as §1, §2\nHEK-BLUE-hTLR7 and HEK-BLUE-hTLR8 cell lines were purchased from Invivogen company and cultured in DMEM medium containing 4.5 g/L glucose (Sigma-Aldrich) and 10% fetal bovine serum under a condition of a temperature of 37° C., a humidity of 95%, and 5% CO2.\nThe test concentration of the compound ranged from 0.5 nM to 15 μM, with a total of 10 concentration gradients. TLR7 or TLR8 agonists with known activity were added thereto as positive controls, and 1 μL of DMSO as a negative control.\nCell treatment was as follows: The cells were removed from the incubator and centrifuged to remove the culture medium, resuspended in a T-150 flask with 10 mL of pre-warmed PBS. 12 mL of pre-warmed culture medium was added thereto, and the cells were pipetted gently up and down, and counted under a microscope. A single cell suspension of 200,000 cells/mL was prepared immediately with culture medium, and 200 μL/well (40,000 cells/well) of the cell suspension was added to a 96-well plate. The final concentration of DMSO was 0.5%.\nThe compound was added thereto, and the mixture was incubated in a 5% CO2 incubator at 37° C. for 24 hours.\n20 μL/well of supernatant was pipetted into 180 μL of Quanti-Blue preheated to 37° C., and the mixture was incubated at 37° C. for 1.5 hours, and the absorbance (OD value) at 650 nm was measured with a spectrophotometer. The calculation formula for the agonistic effect is as follows: • Effect %=(average OD value of the administration group-average OD value of the DMSO group)/(average OD value of the positive drug group-average OD value of the DMSO group)×100 • The concentration-effect curves were fitted with Graphpad software, and EC50 was calculated. The test results are shown in Table 4 (A represents <100 nM, B represents 100 nM to 250 nM, C represents 250 nM to […], D represents >2 μM, / represents not tested).", "units": {"EC50": "µM"}, "values": [
      {"molecule": "CCCN(CCC)C(=O)C1=Cc2ccc(C(=O)Nc3cnc4c(c3)CNCC4)nc2N=C(N)C1", "note": "[Compound 1, 8-amino-N^6,N^6-di-n-propyl-N^2-(5,6,7,8-tetrahydro-1,6-naphthyridin-3-yl)-7H-pyrido[2,3-b]azepine-2,6-dicarboxamide]", "EC50": "0.25 to 1"},
      {"molecule": "CCCN(CCC)C(=O)C1=Cc2ccc(C3(C(=O)Nc4cnc5c(c4)CNCC5)CC3)cc2N=C(N)C1", "note": "[Compound 3, 2-amino-N,N-di-n-propyl-8-(1-((5,6,7,8-tetrahydro-1,6-naphthyridin-3-yl)carbamoyl)cyclopropyl)-3H-benzo[b]azepine-4-carboxamide]", "EC50": "0.1 to 0.25"},
      {"molecule": "CCCN(CCC)C(=O)C1=Cc2c(F)cc(C3(C(=O)Nc4cnc5c(c4)CNCC5)CC3)cc2N=C(N)C1", "note": "[Compound 5, 2-amino-6-fluoro-N,N-di-n-propyl-8-(1-((5,6,7,8-tetrahydro-1,6-naphthyridin-3-yl)carbamoyl)cyclopropyl)-3H-benzo[b]azepine-4-carboxamide]", "EC50": "< 0.1"},
      {"molecule": "CCCN(CCO)C(=O)C1=Cc2ccc(C3(C(=O)Nc4cncc(CN)c4)CC3)cc2N=C(N)C1", "note": "[Compound 12, 2-amino-8-(1-((5-(aminomethyl)pyridin-3-yl)carbamoyl)cyclopropyl)-N-(2-hydroxyethyl)-N-n-propyl-3H-benzo[b]azepine-4-carboxamide]", "EC50": "0.1 to 0.25"},
      {"molecule": "CCCN(CCO)C(=O)C1=Cc2ccc(C(=O)Nc3cnc4c(c3)CNCC4)cc2N=C(N)C1", "note": "[Compound 13, 2-amino-N^4-(2-hydroxyethyl)-N^4-n-propyl-N^8-(5,6,7,8-tetrahydro-1,6-naphthyridin-3-yl)-3H-benzo[b]azepine-4,8-dicarboxamide]", "EC50": "0.25 to 1"}
    ]}
  ]
}
